Data as given in publication PMC12169680, “Design and Mechanistic Analysis of a Potent Bivalent Inhibitor of Transthyretin Amyloid Fibrillogenesis” (Journal of Medicinal Chemistry, 2025).

Columns and labels:
[1] = molecular target: T1, wild-type TTR in normal human plasma (Homo sapiens, UniProt P02766); assay: Displacement of 125I-T4 from TTR in normal human plasma; format: binding
T1 construct: TTR in whole plasma, from individuals homozygous for wild-type TTR; from tissue; host or cells: whole human plasma from individuals homozygous for wild-type TTR

[2] = Rat pharmacokinetics; format: in vivo; conditions: data not shown
[3] = molecular target: T2, V122I TTR (Homo sapiens, UniProt P02766, V142I); assay: Inhibition of mechano-enzymatic fibrillogenesis (ThT); format: biochemical
T2 construct: 1-127; His6 (N); TEV cleavage site (N); made in house; host or cells: E. coli BL21 (DE3)
Procedure: To test their potency as inhibitors of TTR fibril formation, the 15 ligands were evaluated for their ability to inhibit the mechano-enzymatic mechanism of fibrillogenesis of V122I TTR, which is one of the most common amyloidogenic variants, , causing a disease with severity intermediate between the wild-type and other rare, more aggressive types of amyloidosis. […] Biochemical activity of ligands together with their physicochemical properties (i.e., cLogD, TPSA) were taken into consideration and B26 was finally selected as the most promising lead for further studies (Figure A). […] Prototype mds84 was also included for comparison. […] Although higher molar ratios of the monovalent ligands did inhibit fibrillogenesis, this cannot be replicated in vivo because the negative cooperativity of TTR cannot be overcome at feasible drug dosage. ,
Recombinant V122I TTR at 0.5 mg/mL (9 μM) in PBS, pH 7.4 was preincubated (37 °C for 30 min) with an equimolar concentration of ligand (or DMSO alone) before adding trypsin (5 ng/μL). Protein fibrillogenesis was carried out in glass vials stirred at 1400 rpm (IKA magnetic stirrer), 37 °C and spectrophotometric turbidity at 400 nm was used to monitor fibril formation over time until it reached a plateau at 96 h.
Analysis of amyloid material harvested from each sample at the end of the fibrillogenesis was carried out using Thioflavin T (ThT) emission fluorescence and Congo red staining. For these analyses, samples were centrifuged 20 min at 11,600g and pellets were thoroughly rinsed with PBS to remove nonbound ligand, resuspended with 100 μL PBS, pH 7.4, containing 10 μM Thioflavin T (ThT) in Costar 96-well black-wall plates. Bottom fluorescence values (excitation 440 nm, emission 480 nm) were recorded using a BMG LABTECH FLUostar Omega plate reader. Each value was normalized to the ThT signal of the TTR sample without ligand.

[4] = molecular target: T3, recombinant wild-type TTR (Homo sapiens, UniProt P02766); assay: Stopped flow kinetics of ligand binding by fluorescence emission; conditions: for rate constant k of TTR intrinsic fluorescence quenching / very early change in TTR fluorescence during dead time: 1 μM TTR; for rate constant k of TTR intrinsic fluorescence quenching: 1 μM ligand, 37 °C, PBS pH 7.4, first second; for very early change in TTR fluorescence during dead time: dead time <5 ms, equimolar ligand
T3 construct: Native TTR is a noncovalent homotetramer of β-sheet-rich 127-residue protomers; His6 (N); TEV cleavage site (N); made in house; host or cells: E. coli BL21 (DE3)
Procedure: Interaction of ligands in the TTR thyroxine binding pockets induces quenching of intrinsic fluorescence emission.
Kinetics of binding within the first second of reaction was evaluated with an SFM 3000 stopped flow device coupled to a MOS500 spectrometer with a fluorescence detection system (Bio Logic, Claix, France) and a cell path length of 1.5 mm (dead-time <5 ms). Total fluorescence emission over 325 nm, using a cut off filter, was monitored after excitation at 280 nm at 37 °C and 1 μM recombinant wild-type TTR in the presence of 1 μM of ligand in PBS pH 7.4 at a final concentration of 0.9% DMSO. Kinetic data were acquired as the average of at least 3 experimental mixings and fitted using the following equation y(t)=q+Aexp(−kt) where y(t) is the observed fluorescence q the offset of the baseline. A and k are, respectively, amplitude and rate constant of the observed fluorescence change.

[5] = molecular target: T4, TTR (Homo sapiens, UniProt P02766); assay: NMR saturation transfer difference (STD) experiments to estimate k off; format: binding; conditions: no STD signal observed by increasing the saturation time
T4 construct: Native TTR is a noncovalent homotetramer of β-sheet-rich 127-residue protomers; His6 (N); TEV cleavage site (N); made in house; host or cells: E. coli BL21 (DE3)
From the text: However, the prototype mds84 was unsuitable for drug development due to its large and highly hydrophobic structure. The bivalent compound B26 represents the evolution of such TTR ligands. Compared to the palindromic prototype, the molecule has reduced size and reduced lipophilicity as a consequence of the removal of one of the aryl rings from headgroup B; introduction of an oxygen in the six-atom linker; replacement of the benzoyl group in headgroup A with 4-carboxy pyridine. Despite these structural changes, the ligand retains the same pseudoirreversible binding of mds84. […] Therefore, the B26 ligand overcomes the pharmaceutical limitations of negative cooperativity and, at the same time, retains the biomolecular property of very strong inhibition of TTR fibrillogenesis by simultaneously occupying the two ligand binding sites. Each of them is able to accommodate two aryl rings, and the one that penetrates deeper into the cavity is anchored to the protein by two halogen substituents. We have designed a bivalent molecule in which one-half has the properties of a classical analogue of the thyroid hormone, and the second half, connected through a chemical linker, is represented by only one aryl ring with halogen substituents.

[6] = molecular target: T2, V122I TTR; assay: Electrophoretic analysis of V122I TTR proteolysis before and after mechano-enzymatic aggregation; format: biochemical; conditions: SDS-PAGE, trypsin, 96 h aggregation
Procedure: Figure S2. Effect of B26 on proteolysis of V122I TTR. Homogenous SDS-12% PAGE under reducing conditions of 9 µM V122I TTR before (a) and after 96 h aggregation in the presence of 0 (b), 4.5 µM (c), 9 (d), 18 (e) and 36 µM (f) of B26 respectively in PBS pH 7.4 at 37°C. Aggregation was carried out under fluid agitation and addition of trypsin at an enzyme: substrate ratio of 1:200. LMW marker […]

[7] = residual V122I TTR fibrillar aggregation with equimolar ligand, ThT emission normalized to protein without ligand, mean ± SD
[8] = supplementary CSV, residual V122I TTR aggregation, equimolar ligand

Compound	IC50 ([1]; capacity to displace 125I-T4 from TTR in human plasma)	rat pharmacokinetics compared with mds84 [2]	inhibition of V122I TTR amyloid formation at equimolar ligand/protein, in words ([3]; 9 μM V122I TTR, equimolar concentration, bivalent vs monovalent ligands)	rate constant k of TTR intrinsic fluorescence quenching [4]	very early change in TTR fluorescence during dead time [4]	Agg (%) [3, 7]	Agg (%) [3, 8]	IC50 ([1]; ligand concentration reducing binding of 125I-thyroxine by wild-type TTR by 50% in normal human plasma, mean ± SD)	antifibrillogenic activity, in words ([3]; V122I TTR, equimolar ligand)	binding to TTR in plasma, in words ([1]; normal human plasma)	quenching reaction / penetrance faster than mds84 ([4]; ratio of rate constants)	quenching reaction slower than tafamidis ([4]; ratio of rate constants)	reduction of TTR intrinsic fluorescence ([4]; within the first second, equimolar protein and ligand)	k off [5]	effect on proteolysis of V122I TTR [6]
O=C(O)CCc1cc(Cl)c(OCCCCCCCOc2c(Cl)cc(Nc3ccccc3C(=O)O)cc2Cl)c(Cl)c1 [compound 1]	2 ± 0.2 µM	much improved													
O=C(O)c1ccc2nc(-c3cc(Cl)cc(Cl)c3)oc2c1 [tafamidis, reference compound]			significantly lower inhibitory effect	49 ± 0.0016 s^–1	approximately 8%										
O=C(O)c1ccccc1Nc1cc(Cl)c(OCCCCCCCOc2c(Cl)cc(Nc3ccccc3C(=O)O)cc2Cl)c(Cl)c1 [mds84, reference compound]				4.4 ± 0.44 s^–1	3%	2.4 ± 0.30%	2.4±0.30%	19 ± 5.8 µM							
O=C(O)CCc1cc(Cl)c(OCCCOCCOc2c(Cl)cc(Nc3cnccc3C(=O)O)cc2Cl)c(Cl)c1 [B26, 3-[4-[2-[3-[4-(2-Carboxyethyl)-2,6-dichloro-phenoxy]-propoxy]-ethoxy]-3,5-dichloro-anilino]-Pyridine-4-Carboxylic Acid]				22 ± 0.55 s^–1	approximately 8%	4.2 ± 1.9%	4.2±1.9%		excellent antifibrillogenic activity	preservation of the properties	5 fold	at least 2 fold	~30%	very slow	inhibited proteolysis
